# Reference: the Kinase Knowledgebase extract (Sharma et al. 2016)
# Target: PIK3CG (human) (UniProt P48736)
# Test: Inhibition of PIK3CG Kinase Activity
# Sequence of PIK3CG (human) (P48736 whole entry, looked up): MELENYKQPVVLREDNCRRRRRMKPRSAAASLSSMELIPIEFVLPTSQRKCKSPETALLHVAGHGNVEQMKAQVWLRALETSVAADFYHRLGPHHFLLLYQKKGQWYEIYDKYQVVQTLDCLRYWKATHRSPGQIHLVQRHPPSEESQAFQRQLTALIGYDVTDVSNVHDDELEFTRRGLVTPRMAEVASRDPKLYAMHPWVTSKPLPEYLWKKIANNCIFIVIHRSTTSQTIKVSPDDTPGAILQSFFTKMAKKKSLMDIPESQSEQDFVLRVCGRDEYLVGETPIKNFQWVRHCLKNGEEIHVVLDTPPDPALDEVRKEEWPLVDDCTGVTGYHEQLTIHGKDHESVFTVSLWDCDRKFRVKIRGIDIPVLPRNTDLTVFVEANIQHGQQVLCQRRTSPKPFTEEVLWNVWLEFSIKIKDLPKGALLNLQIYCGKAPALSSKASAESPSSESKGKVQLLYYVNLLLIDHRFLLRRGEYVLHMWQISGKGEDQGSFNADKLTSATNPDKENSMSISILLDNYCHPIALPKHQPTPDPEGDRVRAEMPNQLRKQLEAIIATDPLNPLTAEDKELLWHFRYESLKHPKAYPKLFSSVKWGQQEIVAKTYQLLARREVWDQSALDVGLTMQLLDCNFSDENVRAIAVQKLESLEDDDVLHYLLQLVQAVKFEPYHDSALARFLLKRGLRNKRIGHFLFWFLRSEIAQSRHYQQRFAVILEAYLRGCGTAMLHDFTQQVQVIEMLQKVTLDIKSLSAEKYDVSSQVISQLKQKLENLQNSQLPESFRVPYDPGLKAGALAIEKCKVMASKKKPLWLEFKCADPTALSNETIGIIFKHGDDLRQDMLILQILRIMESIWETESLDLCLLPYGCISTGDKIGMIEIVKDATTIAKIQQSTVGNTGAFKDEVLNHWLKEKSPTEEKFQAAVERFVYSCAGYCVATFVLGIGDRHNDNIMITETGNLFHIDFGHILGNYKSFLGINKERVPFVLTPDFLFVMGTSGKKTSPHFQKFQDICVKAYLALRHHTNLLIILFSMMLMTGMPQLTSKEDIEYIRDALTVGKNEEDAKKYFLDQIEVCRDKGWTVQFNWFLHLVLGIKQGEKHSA
row,SMILES,Ki [nM]
1,COc1cncc(-c2cc(C)c3c(n2)C(C)N(c2cn[nH]c2)C3=O)c1 (stereo not given),< 100
2,CCOc1cc(-c2cc(C)c3c(c2)CN(c2cnn(CC#N)c2)C3=O)cnc1OCC,< 100
3,CCOc1ncc(-c2cc(C)c3c(c2)C(C)N(c2cnn(CC(F)(F)F)c2)C3=O)cc1OC (stereo not given),< 100
4,COc1cc(-c2cc(C)c3c(n2)CN(c2ccnc(OCC(F)(F)F)c2)C3=O)cnc1OC,< 100
5,COc1cc(-c2ccc3c(n2)C(C)N(c2cnn(CC(C)(C)O)c2)C3=O)cnc1OC (stereo not given),100 to 490
6,C=C(F)Cn1cc(N2Cc3nc(-c4cnc(OC)c(OC)c4)ccc3C2=O)cn1,< 100
7,COc1ncc(-c2cc(C)c3c(n2)CN(c2cn[nH]c2)C3=O)cc1OCC1CC1,< 100
8,CCn1cc(N2Cc3nc(-c4cncc(OC(F)F)c4)cc(C)c3C2=O)cn1,< 100
9,Cc1cc(-c2cncc(OC(F)F)c2)nc2c1C(=O)N(c1cnn(CC(F)F)c1)C2,< 100
10,Cc1cc(-c2cncc(OC(F)F)c2)nc2c1C(=O)N(c1cn[nH]c1)C2C (stereo not given),< 100
11,COc1cncc(-c2cc(C)c3c(n2)C(C)(C)N(c2ccn(C[C@H](C)O)n2)C3=O)c1,< 100
12,COc1cc(-c2ccc3c(n2)CN(c2cnn(CC(C)C)c2)C3=O)cnc1OC,< 100
13,CCc1cc(N2Cc3nc(-c4cnc(OC)c(OC)c4)cc(C)c3C2=O)nn1C,< 100
14,COc1cc(-c2ccc3c(n2)CN(c2cnn(Cc4cccnc4)c2)C3=O)cnc1OC,< 100
15,COc1cc(-c2cc(C)c3c(n2)CN(c2ccc(C(C)C)nc2)C3=O)cnc1OC,< 100
16,COc1cc(-c2ccc3c(n2)CN(c2cnn(CCCO)c2)C3=O)cnc1OC,< 100
17,Cc1cc(-c2cnc(C)c(OCC(F)(F)F)c2)nc2c1C(=O)N(c1cnn(CC(F)(F)F)c1)C2(C)C,< 100
18,COc1cc(-c2ccc3c(n2)C(Cc2ccccc2)N(c2cnn(CC(F)(F)F)c2)C3=O)cnc1OC (stereo not given),< 100
19,Cc1cc(-c2cncc(NS(=O)(=O)N(C)C)c2)nc2c1C(=O)N(c1cnn(CC(F)(F)F)c1)C2(C)C,< 100
20,CC1c2nc(-c3cccc(OC(F)(F)F)c3)ccc2C(=O)N1c1cnn(CC(F)(F)F)c1 (stereo not given),< 100
21,Cc1cc(-c2cncc(NS(=O)(=O)C(C)C)c2)nc2c1C(=O)N(c1cnn(CC(F)(F)F)c1)C2(C)C,< 100
22,CCOc1ncc(-c2cc(C)c3c(n2)CN(c2cncc(CCC#N)c2)C3=O)cc1OC,< 100
23,COc1cc(-c2ccc3c(n2)CN(c2ccc(N4CCC(O)CC4)nc2)C3=O)cnc1OC,< 100
24,Cc1cc(-c2cncc(CO)c2)cc2c1C(=O)N(c1cnn(CC(F)(F)F)c1)C2C (stereo not given),< 100

row,SMILES,Ki [nM]
1,COc1cc(-c2ccc3c(n2)CN(c2ccc(=O)n(CC4OCCO4)c2)C3=O)cnc1OC,100 to 490
2,COc1ncc(-c2cc(C)c3c(n2)C(C)N(c2cnn(CC(F)(F)F)c2)C3=O)cc1OC(F)F (stereo not given),< 100
3,Cc1cc(-c2cncc(OC(F)F)c2)nc2c1C(=O)N(c1cnn(CC(F)(F)F)c1)C2,< 100
4,CCC1c2nc(-c3cnc(OC)c(OC)c3)ccc2C(=O)N1c1cnn(CC(F)(F)F)c1 (stereo not given),< 100
5,COc1cc(-c2ccc3c(n2)CN(c2cnn(Cc4ccc(CO)cc4)c2)C3=O)cnc1OC,< 100
6,Cc1cc(-c2cncc(C(=O)NCC(C)C)c2)nc2c1C(=O)N(c1cnn(CC(F)(F)F)c1)C2(C)C,< 100
7,Cc1cc(-c2cncc(C(F)(F)F)c2)nc2c1C(=O)N(c1cnn(CC#N)c1)C2,< 100
8,Cc1cc(-c2cnc(C)c(OCC(F)(F)F)c2)nc2c1C(=O)N(c1ccn([C@H]3CCOC3)n1)C2,< 100
9,COc1cc(-c2cc(C)c3c(n2)CN(c2ccc(OCC(F)F)nc2)C3=O)cnc1OC,< 100
10,COc1ncc(-c2cc(C)c3c(c2)CN(c2cnn(CC(F)(F)F)c2)C3=O)nc1OC,< 100
11,Cc1cc(-c2cncc(C(=O)N(C)C)c2)nc2c1C(=O)N(c1cnn(CC(F)(F)F)c1)C2(C)C,100 to 490
12,COc1cncc(-c2cc(C)c3c(n2)CN(c2ccn(CC4CCCO4)n2)C3=O)c1 (stereo not given),< 100
13,COc1ncc(-c2ccc3c(n2)CN(c2ccn(C)n2)C3=O)cc1OC(F)F,< 100
14,COc1cncc(-c2cc(C)c3c(n2)C(C)(C)N(c2cnn(CC(F)F)c2)C3=O)c1,< 100
15,C=C1c2nc(-c3cnc(OC)c(OC)c3)ccc2C(=O)N1c1cnn(CC(F)(F)F)c1,< 100
16,Cc1cc(-c2cnc(C)c(OCC(F)F)c2)nc2c1C(=O)N(c1cnn(CC(F)F)c1)C2C (stereo not given),< 100
17,COCCOc1ncc(-c2cc(C)c3c(n2)C(C)N(c2ccn(C)n2)C3=O)cc1OC (stereo not given),< 100
18,COc1cncc(-c2cc(C)c3c(n2)CN(c2cnn(C[C@H](C)F)c2)C3=O)c1,< 100
19,CCOc1ncc(-c2cc(C)c3c(n2)CN(c2cn(CC(F)(F)F)cn2)C3=O)cc1OC,< 100
20,CCCCn1cc(N2Cc3cc(-c4cnc(OC)c(OC)c4)ccc3C2=O)cn1,100 to 490
21,Cc1cc(-c2cncc(OC(F)F)c2)nc2c1C(=O)N(c1cncc(CC#N)c1)C2C (stereo not given),< 100
22,CCn1cc(N2Cc3cc(-c4cnc(OC)c(OC)c4)ccc3C2=O)cn1,< 100
23,COc1cc(-c2cc(C)c3c(n2)C2(CCOCC2)N(c2cnn(CC(F)(F)F)c2)C3=O)cnc1OC(C)C,< 100
24,CCOc1ncc(-c2cc(C)c3c(n2)CN(c2cnn(CC)c2)C3=O)cc1OC,< 100

row,SMILES,Ki [nM]
1,COc1cncc(-c2cc(C)c3c(n2)C(OC)N(c2cnn(CC(F)(F)F)c2)C3=O)c1 (stereo not given),< 100
2,Cc1cc(-c2cncc(OC(F)F)c2)nc2c1C(=O)N(c1cn[nH]c1)[C@@H]2C,< 100
3,COc1cc(-c2ccc3c(n2)C(C)N(c2cncc(C(C)(C)C#N)c2)C3=O)cnc1OC (stereo not given),100 to 490
4,CCn1cc(N2Cc3nc(-c4cnc(OC)c(OCC(F)F)c4)cc(C)c3C2=O)cn1,< 100
5,COc1cncc(-c2cc(C)c3c(n2)[C@H](OC)N(c2cnn(CC(F)(F)F)c2)C3=O)c1,< 100
6,Cc1cc(-c2cncc(OCC(F)F)c2)nc2c1C(=O)N(c1cnn(CC(F)(F)F)c1)[C@@H]2C,< 100
7,COc1cc(-c2ccc3c(n2)CN(c2cn[nH]c2)C3=O)cnc1OC,< 100
8,CCCOc1cc(-c2cc(C)c3c(n2)C(C)(C)N(c2cnn(CC#N)c2)C3=O)cnc1CC,< 100
9,Cc1cc(-c2cnc3ccccc3c2)nc2c1C(=O)N(c1cn[nH]c1)C2,100 to 490
10,CCC(=O)Nc1cncc(-c2cc(C)c3c(n2)C(C)(C)N(c2cnn(CC(F)(F)F)c2)C3=O)c1,100 to 490
11,COc1cc(-c2ccc3c(n2)CN(c2cnn(C(C)(C)C#N)c2)C3=O)cnc1OC,< 100
12,COc1cc(-c2ccc3c(n2)CN(c2cnn(C4CCOCC4)c2)C3=O)cnc1OC,< 100
13,COc1cc(-c2ccc3c(n2)[C@H](C)N(c2cn(CC(F)(F)F)cn2)C3=O)cnc1OC,< 100
14,COc1cc(-c2cc(C)c3c(n2)CN(c2cnc(C(C)(C)O)c(F)c2)C3=O)cnc1OC,< 100
15,COc1cc(-c2ccc3c(c2)CN(c2csc(C)c2)C3=O)cnc1OC,100 to 490
16,COc1cncc(N2Cc3nc(-c4cnc(OC)c(OC)c4)cc(C)c3C2=O)c1,< 100
17,COc1cc(-c2ccc3c(n2)C(C)N(c2ccn(C[C@H](C)O)n2)C3=O)cnc1OC (stereo not given in full),< 100
18,COc1ncc(-c2cc(C)c3c(n2)C(C)(C)N(c2cnn(CC(F)(F)F)c2)C3=O)cc1C(=O)NC(C)CO (stereo not given),< 100
19,CCOc1cncc(-c2cc(C)c3c(n2)[C@H](OC)N(c2cnn(CC(F)(F)F)c2)C3=O)c1,< 100
20,Cc1cc(-c2cncc(OCC(F)(F)F)c2)nc2c1C(=O)N(c1cnn(CC(F)(F)F)c1)C2(C)C,< 100
21,COc1cc(-c2ccc3c(c2)CN(c2cc(C4CC4)[nH]n2)C3=O)cnc1OC,< 100
22,N#CCn1cc(N2Cc3cc(-c4cncc(S(N)(=O)=O)c4)ccc3C2=O)cn1,< 100
23,COc1ccc(-c2cc(C)c3c(c2)CN(c2cnn(CC#N)c2)C3=O)cc1OC,< 100
24,COc1cncc(-c2cc(C)c3c(n2)C2(COC2)N(c2cnn(CC(F)(F)F)c2)C3=O)c1,< 100

row,SMILES,Ki [nM]
1,COc1cc(-c2cc(C)c3c(n2)CN(c2csc(C)c2)C3=O)cnc1OC,< 100
2,CCC1(OC)c2nc(-c3cnc(OC)c(OC)c3)cc(C)c2C(=O)N1c1cnn(CC(F)(F)F)c1 (stereo not given),< 100
3,COCCCn1cc(N2Cc3cc(-c4cnc(OC)c(OC)c4)ccc3C2=O)cn1,100 to 490
4,Cc1cc(-c2cncc(OCC(F)F)c2)nc2c1C(=O)N(c1cnn(CC(F)F)c1)C2(C)C,< 100
5,COc1cc(-c2cc(C)c3c(n2)CN(c2cnn(C)c2)C3=O)cnc1OC,< 100
6,COc1cc(-c2cc(C)c3c(n2)CN(c2cnn(C(C)(C)C#N)c2)C3=O)cnc1OC,< 100
7,COc1cc(-c2ccc3c(n2)CN(c2ccc(N4CCC(CO)CC4)nc2)C3=O)cnc1OC,< 100
8,COc1cc(-c2cc(C)c3c(n2)C(O)N(c2cnn(CC(F)(F)F)c2)C3=O)cnc1OC (stereo not given),< 100
9,COc1ncc(-c2cc(C)c3c(n2)C(C)N(c2cnn(CC(F)(F)F)c2)C3=O)cc1C(=O)O (stereo not given),< 100
10,COc1cc(-c2ccc3c(n2)CN(c2cnn(CCn4nc(C)cc4C)c2)C3=O)cnc1OC,100 to 490
11,Cc1ccc(-c2cc(C)c3c(n2)CN(c2cnn(CC#N)c2)C3=O)cn1,< 100
12,Cc1cc(-c2ccc(F)c(O)c2)nc2c1C(=O)N(c1cnn(CC(F)(F)F)c1)C2,< 100
13,COc1cc(-c2ccc3c(n2)CN(c2ccc(OCC4OCCO4)nc2)C3=O)cnc1OC,< 100
14,Cc1cc(-c2cncc(OCC(F)F)c2)nc2c1C(=O)N(c1ccn([C@H]3CCOC3)n1)C2,< 100
15,COc1ncc(-c2cc(C)c3c(n2)C(C)N(c2cnn(CC(F)(F)F)c2)C3=O)cc1C(=O)NC(C)C (stereo not given),< 100
16,COc1cc(-c2ccc3c(c2)CN(c2cncc(C)c2)C3=O)cnc1OC,< 100
17,Cc1cc(-c2cncc(O)c2)nc2c1C(=O)N(c1cnn(CC(F)(F)F)c1)C2,< 100
18,COc1cc(-c2cc(C)c3c(n2)CN(c2ccc(OCCCC(F)(F)F)nc2)C3=O)cnc1OC,< 100
19,COc1ccc(-c2cc(C)c3c(n2)C(C)(C)N(c2cnn(CC(F)F)c2)C3=O)nc1OC,< 100
20,Cc1cncc(-c2cc(C)c3c(n2)CN(c2cnn(CC#N)c2)C3=O)c1,< 100
21,COc1ncc(-c2cc(C)c3c(n2)C(C)(C)N(c2cnn(CC(F)(F)F)c2)C3=O)cc1C(=O)NC1CC1,< 100
22,CCOCCCOc1ncc(-c2cc(C)c3c(n2)CN(c2cnn(CC(F)(F)F)c2)C3=O)cc1OC,100 to 490
23,CC(=O)Nc1cncc(-c2cc(C)c3c(n2)C(C)(C)N(c2cnn(CC(F)(F)F)c2)C3=O)c1,< 100
